# Reference: EP4596574A1, “GLP-1/GCG/GIP TRIPLE-RECEPTOR AGONIST AND USE THEREOF” (Sunshine Lake Pharma Co., Ltd., priority 2022, dated 2024)
# Entries after “also recorded” stand apart in the source; their conditions may differ. Marks after values point to notes of the source that are not given here.
# Assays:
# [1] = In vivo efficacy evaluation in db/db mouse model (blood glucose); set-up: species or system db/db mice
# Protocol: Blood glucose was tested before each administration.
# GIPR = molecular target: T1, GIPR (Homo sapiens, UniProt P48546); assay: In vitro cell activity, cAMP production in HEK293 cells expressing GIPR; assay type: cell-based
# T1 construct: expressed in transfected cells; host or cells: HEK293 (HEK293-GIPR)
# T1 sequence (P48546 22-466): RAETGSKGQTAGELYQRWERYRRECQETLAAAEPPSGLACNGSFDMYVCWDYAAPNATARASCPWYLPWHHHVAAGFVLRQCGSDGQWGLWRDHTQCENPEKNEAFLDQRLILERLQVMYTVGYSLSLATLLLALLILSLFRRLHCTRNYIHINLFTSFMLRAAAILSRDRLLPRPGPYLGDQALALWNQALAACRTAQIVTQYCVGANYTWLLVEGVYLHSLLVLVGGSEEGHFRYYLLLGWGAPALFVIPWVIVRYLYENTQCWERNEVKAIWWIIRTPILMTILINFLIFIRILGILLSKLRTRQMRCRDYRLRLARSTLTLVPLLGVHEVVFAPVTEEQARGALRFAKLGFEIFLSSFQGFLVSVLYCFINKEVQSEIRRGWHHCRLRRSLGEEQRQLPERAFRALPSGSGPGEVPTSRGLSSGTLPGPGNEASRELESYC
# Outline: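 HEK293 cells expressing human GIPR, thawed and diluted to 4×10^5 cells/mL, are stimulated with test compound. cAMP is measured by HTRF competition between cAMP-d2 and anti-cAMP cryptate. EC50 comes from a four-parameter nonlinear fit of signal ratio against concentration.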
# GLP-1R = molecular target: T2, GLP-1R (Homo sapiens, UniProt P43220); assay: In vitro cell activity, cAMP production in HEK293 cells expressing GLP-1R; assay type: cell-based
# T2 construct: expressed in transfected cells; host or cells: HEK293 (HEK293-GLP-1R)
# T2 sequence (P43220 24-463, species assumed): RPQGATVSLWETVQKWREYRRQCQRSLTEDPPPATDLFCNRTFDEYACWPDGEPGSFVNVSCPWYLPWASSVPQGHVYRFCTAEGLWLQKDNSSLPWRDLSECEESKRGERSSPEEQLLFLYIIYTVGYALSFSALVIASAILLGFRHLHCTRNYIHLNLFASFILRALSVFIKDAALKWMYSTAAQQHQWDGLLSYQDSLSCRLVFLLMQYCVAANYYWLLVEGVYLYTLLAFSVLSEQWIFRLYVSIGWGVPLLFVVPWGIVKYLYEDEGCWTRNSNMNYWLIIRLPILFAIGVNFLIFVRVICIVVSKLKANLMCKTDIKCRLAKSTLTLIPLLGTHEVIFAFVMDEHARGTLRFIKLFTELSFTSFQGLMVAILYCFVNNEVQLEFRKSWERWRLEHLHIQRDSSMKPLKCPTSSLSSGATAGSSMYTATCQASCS
# Outline: (§1)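 HEK293 transfectants, 4×10^5 cells/mL, 384-well. Detection: cAMP-d2 + anti-cAMP cryptate 1:1, RT 1 h dark or 4 °C o/n. Read 665/620 nm; 4-parameter nonlinear fit → EC50.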
# [2] = Long-term repeated administration in diet-induced obese C57BL/6 mice (DIO); assay type: in vivo, C57/BL6 mice
# GCGR = molecular target: T3, GCGR (Homo sapiens, UniProt P47871); assay: In vitro cell activity, cAMP production in HEK293 cells expressing GCGR; assay type: cell-based
# T3 construct: expressed in transfected cells; host or cells: HEK293 (HEK293-GCGR)
# T3 sequence (P47871 26-477, species assumed): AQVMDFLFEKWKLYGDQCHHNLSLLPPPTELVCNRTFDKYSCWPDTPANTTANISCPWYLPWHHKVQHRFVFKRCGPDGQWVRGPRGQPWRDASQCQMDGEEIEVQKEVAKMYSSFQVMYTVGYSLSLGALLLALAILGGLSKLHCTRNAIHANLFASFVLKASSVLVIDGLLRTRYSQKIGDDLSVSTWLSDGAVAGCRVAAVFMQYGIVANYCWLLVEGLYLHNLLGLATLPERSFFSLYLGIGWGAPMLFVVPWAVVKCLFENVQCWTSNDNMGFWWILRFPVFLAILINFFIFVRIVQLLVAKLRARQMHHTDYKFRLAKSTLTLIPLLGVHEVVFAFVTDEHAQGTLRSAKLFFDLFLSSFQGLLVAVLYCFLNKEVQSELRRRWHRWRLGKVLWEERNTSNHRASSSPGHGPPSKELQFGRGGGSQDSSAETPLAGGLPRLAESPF
# Outline: as §1
# [3] = 10 nmol/kg s.c. once every 3 days, D7
# [4] = 10 nmol/kg s.c. once every 3 days, D10
# [5] = 10 nmol/kg s.c. once every 3 days, D13
# [6] = 10 nmol/kg s.c. once every 3 days, D16
# [7] = 10 nmol/kg s.c. once every 3 days, D19
# [8] = 10 nmol/kg s.c. once every 3 days, D22
# [9] = 10 nmol/kg s.c. once every 3 days, D25
# [10] = 10 nmol/kg s.c. once every 3 days, D28
# [11] = after 4 weeks of administration
# [12] = after 4 weeks of administration, same dose
# [13] = long-term administration 10 nmol/kg, 72 h after the last administration
# [14] = long-term administration 10 nmol/kg, blood biochemical index
smiles,measurement,setting,value
CC[C@H](C)[C@H](NC(=O)[C@H](Cc1ccccc1)NC(=O)[C@H](C)NC(=O)[C@H](CCCNC(=N)N)NC(=O)[C@H](CCC(N)=O)NC(=O)[C@H](CCCNC(=N)N)NC(=O)[C@H](CCCCNC(=O)COCCOCCNC(=O)CC[C@H](NC(=O)CCCCCCCCCCCCCCCCCCC(=O)O)C(=O)O)NC(=O)[C@H](CCC(=O)O)NC(=O)[C@H](CC(=O)O)NC(=O)[C@H](CC(C)C)NC(=O)[C@H](CC(C)C)NC(=O)[C@@H](NC(=O)[C@H](CO)NC(=O)[C@H](Cc1ccc(O)cc1)NC(=O)[C@H](CC(=O)O)NC(=O)[C@H](CO)NC(=O)[C@@H](NC(=O)[C@](C)(Cc1ccccc1F)NC(=O)[C@@H](NC(=O)CNC(=O)[C@H](CCC(N)=O)NC(=O)C(C)(C)NC(=O)[C@@H](N)Cc1ccc(O)cc1)[C@@H](C)O)[C@@H](C)O)[C@@H](C)CC)C(=O)N[C@@H](CCC(=O)O)C(=O)N[C@@H](Cc1ccc(O)cc1)C(=O)N[C@@H](CC(C)C)C(=O)N[C@@H](CC(C)C)C(=O)N[C@@H](C)C(=O)NCC(=O)NCC(=O)N1CCC[C@H]1C(=O)N[C@@H](CO)C(=O)N[C@@H](CO)C(=O)NCC(=O)N[C@@H](C)C(=O)N1CCC[C@H]1C(=O)N1CCC[C@H]1C(=O)N1CCC[C@H]1C(=O)N[C@@H](CO)C(=O)O [HEC-PT86],blood glucose after administration,"[1]; db/db mice, 10 nmol/kg",significantly reduce blood glucose
same,Random blood glucose (mM) D0,"[1]; db/db mice, 10 nmol/kg s.c. once every three days, D0 (before first dose)",27.3 ± 3.6 mM
same,Random blood glucose (mM) D3,"[1]; db/db mice, 10 nmol/kg s.c. once every three days, D3",9.2 ± 5.6 mM
same,Random blood glucose (mM) D4,"[1]; db/db mice, 10 nmol/kg s.c. once every three days, D4",16.2 ± 6.5 mM
same,Random blood glucose (mM) D5,"[1]; db/db mice, 10 nmol/kg s.c. once every three days, D5",18.8 ± 5.7 mM
same,Random blood glucose (mM) D6,"[1]; db/db mice, 10 nmol/kg s.c. once every three days, D6",23.0 ± 3.7 mM
same,Random blood glucose (mM) D7,"[1]; db/db mice, 10 nmol/kg s.c. once every three days, D7",21.0 ± 4.4 mM
same,Random blood glucose (mM) D10,"[1]; db/db mice, 10 nmol/kg s.c. once every three days, D10",9.1 ± 2.3 mM
same,Random blood glucose (mM) D13,"[1]; db/db mice, 10 nmol/kg s.c. once every three days, D13",9.6 ± 3.2 mM
same,Random blood glucose (mM) D16,"[1]; db/db mice, 10 nmol/kg s.c. once every three days, D16",8.4 ± 1.7 mM
same,Random blood glucose (mM) D19,"[1]; db/db mice, 10 nmol/kg s.c. once every three days, D19",12.0 ± 3.3 mM
same,Random blood glucose (mM) D22,"[1]; db/db mice, 10 nmol/kg s.c. once every three days, D22",11.6 ± 3.8 mM
same,Random blood glucose (mM) D25,"[1]; db/db mice, 10 nmol/kg s.c. once every three days, D25",13.1±3.3^a mM
same,Random blood glucose (mM) 6 h,"[1]; db/db mice, 10 nmol/kg s.c., 6 h",15.4 ± 4.4 mM
same,Random blood glucose (mM) 24 h,"[1]; db/db mice, 10 nmol/kg s.c., 24 h",6.5 ± 1.4 mM
same,Random blood glucose (mM) 48 h,"[1]; db/db mice, 10 nmol/kg s.c., 48 h",7.9 ± 2.8 mM
same,time at which blood glucose levels reached the lowest level,"[1]; db/db mice, 10 nmol/kg, after administration",about 24 hours
same,blood glucose lowering after long-term administration compared with LY3298176,"[1]; db/db mice, long-term repeated administration",better than that of the LY3298176 group; also recorded: better hypoglycemic effect than LY3298176
same,blood glucose reducing effect after administration compared with LY3298176,"[1]; db/db mice, same dose 10 nmol/kg",slightly better than the positive control LY3298176
same,blood glucose level after long-term administration,[1]; type II diabetes model db/db mice,significantly improve the blood glucose level
same,EC50,GIPR,113 pM
same,EC50,GLP-1R,158 pM
same,Cumulative food intake (g/pcs) D7,[2]; [3],8.4 g/pcs
same,Weight gain rate (%) D7,[2]; [3],-17.8±5.8%
same,Cumulative food intake (g/pcs) D10,[2]; [4],11.6 g/pcs
same,Weight gain rate (%) D10,[2]; [4],-23.5±6.6%
same,Cumulative food intake (g/each) D13,[2]; [5],14.5 g/each
same,Weight gain rate (%) D13,[2]; [5],-26.1±7.2%
same,Cumulative food intake (g/each) D16,[2]; [6],19.3 g/each
same,Weight gain rate (%) D16,[2]; [6],-27.9±7.6%
same,Cumulative food intake (g/each) D19,[2]; [7],24.5 g/each
same,Weight gain rate (%) D19,[2]; [7],-29.2±8.1%
same,Cumulative food intake (g/each) D22,[2]; [8],30.4 g/each
same,Weight gain rate (%) D22,[2]; [8],-29.3±7.2%
same,Cumulative food intake (g/each) D25,[2]; [9],36.6 g/each
same,Weight gain rate (%) D25,[2]; [9],-30.6±7.0%
same,Cumulative food intake (g/each) D28,[2]; [10],43.4 g/each
same,Weight gain rate (%) D28,[2]; [10],-31.2±6.4%
same,Cumulative food intake (g/each) D30,"[2]; 10 nmol/kg s.c. once every 3 days, D30",47.0^a g/each
same,Weight gain rate (%) D31,"[2]; 10 nmol/kg s.c. once every 3 days, D31",-30.9±6.4^a %
same,Cumulative food intake (g/pcs) D0,"[2]; 10 nmol/kg s.c., D0",2.5 g/pcs
same,Weight gain rate (%) D0,"[2]; 10 nmol/kg s.c., D0",0.0±0.0%
same,Cumulative food intake (g/pcs) D1,"[2]; 10 nmol/kg s.c., D1",2.9 g/pcs
same,Weight gain rate (%) D1,"[2]; 10 nmol/kg s.c., D1",-6.0±0.8%
same,Cumulative food intake (g/pcs) D2,"[2]; 10 nmol/kg s.c., D2",3.5 g/pcs
same,Weight gain rate (%) D2,"[2]; 10 nmol/kg s.c., D2",-8.8±1.4%
same,Cumulative food intake (g/pcs) D3,"[2]; 10 nmol/kg s.c., D3",4.5 g/pcs
same,Weight gain rate (%) D3,"[2]; 10 nmol/kg s.c., D3",-9.9±1.6%
same,Cumulative food intake (g/pcs) D4,"[2]; 10 nmol/kg s.c., D4",5.8 g/pcs
same,Weight gain rate (%) D4,"[2]; 10 nmol/kg s.c., D4",-10.6±2.9%
same,liver function and blood lipids of DIO mice,[2]; [11],significantly improved the liver function and blood lipids
same,weight loss and food intake inhibition effects compared with Semaglutide,[2]; [11],superior to the positive drug Semaglutide
same,food intake inhibition effect compared with LY3298176,[2]; [12],comparable to those of the same dose of the positive drug LY3298176
same,weight loss effect compared with LY3298176,[2]; [12],comparable to those of the same dose of the positive drug LY3298176
same,Liver index/%,[2]; [13],2.7±0.0^a %
same,Liver/g,[2]; [13],0.9±0.1^a g
same,Weight/g,[2]; [13],32.3±4.4^a g
same,ALT (U/L),[2]; [14],27.8±9.4^a U/L
same,AST (U/L),[2]; [14],108.6±26.3^a U/L
same,CHOL (mmol/L),[2]; [14],3.5±0.7^a mmol/L
same,TRIGL (mmol/L),[2]; [14],0.6±0.1^a mmol/L
same,EC50,GCGR,806 pM
